# Measurements published in US20180038865A1, “CD9 AS A THERAPEUTIC TARGET FOR HEMATOLOGIC MALIGNANCIES” (The Chinese and Knowledge Transfer Services, priority 2016, published 2018).
# What was measured:
# Assay in all cases: Apoptosis assay (Annexin V/7-AAD), vincristine, monoculture or stromal co-culture
# Type in all cases: cell-based, human
# 697 cells = conditions: vincristine 12.5 nM, 3 days
# Method: (§1) […]: In vitro and in vivo effects of CD9 antibody on chemosensitivity of B-ALL cells. (FIG. 4A) B-ALL cell lines were treated with vincristine (VCR, 12.5 nM) for 3 days in monoculture or stromal co-culture. Apoptosis was monitored by Annexin V/7-AAD staining (n=4). (FIG. 4B) 697 cells were treated with VCR (12.5 nM) in stromal co-cultures for 3 days, in the presence of control IgG or anti-CD9 (ALB6, 10 μg/mL), and measured for apoptosis (n=4). (FIG. 4C) NOD/SCID mice were transplanted with 697 cells and treated with IgG alone, anti-CD9 alone (ALB6, 20 μg/mouse), IgG+VCR (0.8 mg/kg) or anti-CD9 + VCR. Antibodies and VCR were given twice a week for 2 weeks. Animal survival was analyzed (4-5 mice/group). Data are means±SEM. Statistics: (A and B) two-tailed, paired Student's t-test, (FIG. 4C) log-rank test. *P<0.05, **P<0.01.
# (§2) B-ALL cell lines (1×10^5) were cultured with or without monolayers of BM stromal cells, and exposed to 10 μg/mL of control IgG or CD9 antibody (ALB6). Cells were then treated with vincristine (12.5 nM; Sigma Aldrich) for 3 days at 37° C. Apoptotic cell death was monitored using the Annexin V/7-AAD Apoptosis Detection Kit (BD Biosciences).
# RS4;11 = conditions: vincristine 12.5 nM, 3 days
# Method: as §1, §2
# Reh cells = conditions: vincristine 12.5 nM, 3 days; CD9low Reh
# Method: as §1, §2
# SUP-B15 = conditions: vincristine 12.5 nM, 3 days
# Method: as §1, §2
compound,measurement,setting,value
CC[C@]1(O)C[C@H]2CN(CCc3c([nH]c4ccccc34)[C@@](C(=O)OC)(c3cc4c(cc3OC)N(C=O)[C@H]3[C@@](O)(C(=O)OC)[C@H](OC(C)=O)[C@]5(CC)C=CCN6CC[C@]43[C@@H]65)C2)C1 [vincristine],"vincristine-mediated apoptotic cell death, stromal co-culture vs monoculture",697 cells,reduced
same,"vincristine-mediated apoptotic cell death, stromal co-culture vs monoculture",RS4;11,reduced
same,protective effect of stromal cells against vincristine-mediated apoptotic cell death,Reh cells,absent
same,"vincristine-mediated apoptotic cell death, stromal co-culture vs monoculture",SUP-B15,reduced
